Reference: ChEMBL document CHEMBL3259549, “Unraveling the structure-activity relationship of tomatidine, a steroid alkaloid with unique antibiotic properties against persistent forms of Staphylococcus aureus” (2014)
In brackets after ≈: the same amount, converted by molar mass.

Experiments:
[1] = system: Staphylococcus aureus; experiment: MIC fold reduction, ratio of gentamicin MIC for Staphylococcus aureus ATCC 29213 to gentamicin MIC for Staphylococcus aureus ATCC 29213 in presence of compound
[2] = system: Staphylococcus aureus; experiment: microbe, parasite or virus in culture; settings: ATCC 29213, 48 h
Description: Antimicrobial activity against Staphylococcus aureus ATCC 29213 after 48 hrs by broth microdilution method

[3] = system: Staphylococcus aureus; experiment: Antimicrobial activity against hemB-deficient Staphylococcus aureus Newbould after 48 hrs by broth microdilution method; assay type: functional

Molecule	gentamicin MIC fold reduction [1]	MIC [2] [µg/mL]	MIC [3] [µg/mL]
CC(N)[C@H]1CC[C@H]2[C@@H]3CC[C@H]4C[C@@H](O)CC[C@]4(C)[C@H]3CC[C@]12C.Cl (some centres undefined)	2	64	> 8
C[C@@H]1CC[C@@]2(NC1)O[C@H]1C[C@H]3[C@@H]4CC[C@H]5C[C@@H](O)CC[C@]5(C)[C@H]4CC[C@]3(C)[C@H]1[C@@H]2C	1	> 64	> 8
CCCCNC(C)[C@H]1[C@@H](O)C[C@H]2[C@@H]3CC[C@H]4C[C@@H](O)CC[C@]4(C)[C@H]3CC[C@@]21C.Cl (some centres undefined)	2	> 64	> 8
CN(C)CC(=O)[C@H]1CC[C@H]2[C@@H]3CC[C@H]4C[C@@H](O)CC[C@]4(C)[C@H]3CC[C@]12C	2	> 64	> 8
C[C@H]1CC[C@]2(NC1)O[C@H]1C[C@H]3[C@@H]4CC[C@H]5C[C@@H](O)CC[C@]5(C)[C@H]4CC[C@]3(C)[C@H]1[C@@H]2C [TOMATIDINE]	–	–	0.12 (≈ 0.289 µM)
C=CCO[C@H]1CC[C@@]2(C)[C@@H](CC[C@@H]3[C@@H]2CC[C@]2(C)[C@@H]4[C@H](C[C@@H]32)O[C@@]2(CC[C@H](C)CN2)[C@H]4C)C1.Cl	8	16	0.25
CC(=O)NC[C@@H](C)CCC1=C(C)[C@H]2[C@H](C[C@H]3[C@@H]4CC[C@H]5C[C@@H](O)CC[C@]5(C)[C@H]4CC[C@@]32C)O1	1	> 64	> 8
C[C@]12CC[C@H](O)C[C@@H]1CC[C@@H]1[C@@H]2CC[C@]2(C)[C@@H](C(=O)CN3CCCCC3)CC[C@@H]12	2	> 64	> 8
CC(=O)NC[C@@H](C)CCC(O)[C@@H](C)[C@H]1[C@@H](O)C[C@H]2[C@@H]3CC[C@H]4C[C@@H](O)CC[C@]4(C)[C@H]3CC[C@]12C (some centres undefined)	1	> 64	> 8
C[C@H]1CC[C@@]2(O[C@H]3C[C@H]4[C@@H]5CC[C@H]6C[C@@H](O)CC[C@]6(C)[C@H]5CC[C@]4(C)[C@H]3[C@@H]2C)N(C=O)C1	2	> 64	> 8
CC(NCCN)[C@H]1CC[C@H]2[C@@H]3CC[C@H]4C[C@@H](O)CC[C@]4(C)[C@H]3CC[C@]12C.Cl.Cl (some centres undefined)	2	32	> 8
CC(C)CCNC(C)[C@H]1CC[C@H]2[C@@H]3CC[C@H]4C[C@@H](O)CC[C@]4(C)[C@H]3CC[C@]12C.Cl (some centres undefined)	4	> 64	> 8
C[C@H]1CC[C@]2(NC1)O[C@H]1C[C@H]3[C@@H]4CC[C@H]5CC(NCCN)CC[C@]5(C)[C@H]4CC[C@]3(C)[C@H]1[C@@H]2C.Cl.Cl.Cl (some centres undefined)	4	8	0.5
C[C@H]1CC[C@]2(NC1)O[C@H]1C[C@H]3[C@@H]4CC[C@H]5CC(NCCCCCCN)CC[C@]5(C)[C@H]4CC[C@]3(C)[C@H]1[C@@H]2C.Cl.Cl.Cl (some centres undefined)	2	32	1
C[C@H]1CC[C@]2(NC1)O[C@H]1C[C@H]3[C@@H]4CC[C@H]5CC(=O)CC[C@]5(C)[C@H]4CC[C@]3(C)[C@H]1[C@@H]2C.Cl	8	> 64	0.25
C[C@H]1CC[C@]2(NC1)O[C@H]1C[C@H]3[C@@H]4CC[C@H]5CC(N)CC[C@]5(C)[C@H]4CC[C@]3(C)[C@H]1[C@@H]2C.Cl.Cl (some centres undefined)	8	32	1
C[C@H]1CC[C@]2(NC1)O[C@H]1C[C@H]3[C@@H]4CC[C@H]5CC(NCCCCN)CC[C@]5(C)[C@H]4CC[C@]3(C)[C@H]1[C@@H]2C.Cl.Cl.Cl (some centres undefined)	4	16	0.5
CC(=O)NC[C@@H](C)CCC1O[C@H]2C[C@H]3[C@@H]4CC[C@H]5C[C@@H](O)CC[C@]5(C)[C@H]4CC[C@]3(C)[C@H]2[C@@H]1C (some centres undefined)	1	> 64	> 8
C[C@H]1CC[C@]2(NC1)O[C@H]1C[C@H]3[C@@H]4CC[C@H]5C[C@@H](O)CC[C@]5(C)[C@H]4CC[C@]3(C)[C@H]1[C@@H]2C.Cl	8	> 64	0.06
C[C@H]1CCC([C@@H](C)[C@H]2[C@@H](O)C[C@H]3[C@@H]4CC[C@H]5C[C@@H](O)CC[C@]5(C)[C@H]4CC[C@]23C)NC1.Cl (some centres undefined)	4	32	4
CCCCNC(C)[C@H]1CC[C@H]2[C@@H]3CC[C@H]4C[C@@H](O)CC[C@]4(C)[C@H]3CC[C@]12C.Cl (some centres undefined)	8	64	4
CC(NCCCN)[C@H]1CC[C@H]2[C@@H]3CC[C@H]4C[C@@H](O)CC[C@]4(C)[C@H]3CC[C@]12C.Cl.Cl (some centres undefined)	2	32	> 8
CC(NCCCCN)[C@H]1CC[C@H]2[C@@H]3CC[C@H]4C[C@@H](O)CC[C@]4(C)[C@H]3CC[C@]12C.Cl.Cl (some centres undefined)	2	32	> 8
C[C@H]1CC[C@]2(NC1)O[C@H]1C[C@H]3[C@@H]4CC[C@H]5C[C@H](O)CC[C@]5(C)[C@H]4CC[C@]3(C)[C@H]1[C@@H]2C.Cl	4	> 64	4
GENTAMICIN	–	–	0.03
CC(NCCCN(C)C)[C@H]1[C@@H](O)C[C@H]2[C@@H]3CC[C@H]4C[C@@H](O)CC[C@]4(C)[C@H]3CC[C@@]21C (some centres undefined)	2	> 64	> 8
